Laboratory results: US20240299387A1, “HETEROCYCLIC EGFR INHIBITORS FOR USE IN THE TREATMENT OF CANCER” (Blueprint Medicines Corporation, priority 2021, published 2024)
Where a name gives a salt, the structure may show the parent alone. Read-outs that look alike come from different tables or passages of the source.

What was measured:
EGFR (L858R T790M C797S) = biological target: T1, EGFR (L858R T790M C797S) (Homo sapiens, UniProt P00533, C797S/L858R/T790M); experiment: Biochemical EGFR inhibition assay (Caliper mobility shift), EGFR LRTMCS mutant
T1 construct: purchased SignalChem E10-122VG
Method: Reactions proceeded until between 10% to 20% total peptides were phosphorylated at room temperature (25° C.) and were terminated with 35 mM 2,2′,2″,2′″-(ethane-1,2-diyldinitrilo)tetraacetic acid (EDTA). Product was detected using the Caliper mobility shift detection method where the phosphorylated peptide (product) and substrate were electrophoretically separated and measured. Percent activity was plotted against log concentration of compound and points to generate an apparent IC50.

[1] = biological target: T2, EGFR L858R T790M in NCI-H1975 cell line (Homo sapiens, UniProt P00533, L858R/T790M); experiment: NCI-H1975 pEGFR AlphaLISA assay; assay type: cell-based; details: NCI-H1975 cells (EGFR L858R T790M), p-EGFR (Tyr1068), 4-5 hours incubation; read-out: Ext pEGFR H1975 GMean IC50 (nM) Protocol: @Pharmaron AlphaLISA (Num)
T2 construct: host or cells: NCI-H1975
Method: The NCI-H1975 cells were seeded at 12.5K/well in 22 μL into 384 well opti plate (PerkinElmer, 6007299) and adhering overnight at 37C/5% CO2. On the next day, the test compounds and DMSO control were added into H1975 cell plate followed by incubation at 37C/5% CO2 for 4-5 hours. […] Then 5 μL of a donor bead mix was added to each well followed by overnight incubation at room temperature in dark. On the next day, the plate was read at a compatible plate reader to obtain pEGFR signal. Percent of pEGFR inhibition was plotted against log concentration of compounds to generate IC50 values.

[2] = LRTMCS (PH) IC50 (nM) @ 1 mM ATP (Num)
[3] = read-out: LRTMCS (PH) IC50 (nM) @ 1 mM ATP (Num)

T1 sequence (P00533 25-1210 T790M/C797S/L858R): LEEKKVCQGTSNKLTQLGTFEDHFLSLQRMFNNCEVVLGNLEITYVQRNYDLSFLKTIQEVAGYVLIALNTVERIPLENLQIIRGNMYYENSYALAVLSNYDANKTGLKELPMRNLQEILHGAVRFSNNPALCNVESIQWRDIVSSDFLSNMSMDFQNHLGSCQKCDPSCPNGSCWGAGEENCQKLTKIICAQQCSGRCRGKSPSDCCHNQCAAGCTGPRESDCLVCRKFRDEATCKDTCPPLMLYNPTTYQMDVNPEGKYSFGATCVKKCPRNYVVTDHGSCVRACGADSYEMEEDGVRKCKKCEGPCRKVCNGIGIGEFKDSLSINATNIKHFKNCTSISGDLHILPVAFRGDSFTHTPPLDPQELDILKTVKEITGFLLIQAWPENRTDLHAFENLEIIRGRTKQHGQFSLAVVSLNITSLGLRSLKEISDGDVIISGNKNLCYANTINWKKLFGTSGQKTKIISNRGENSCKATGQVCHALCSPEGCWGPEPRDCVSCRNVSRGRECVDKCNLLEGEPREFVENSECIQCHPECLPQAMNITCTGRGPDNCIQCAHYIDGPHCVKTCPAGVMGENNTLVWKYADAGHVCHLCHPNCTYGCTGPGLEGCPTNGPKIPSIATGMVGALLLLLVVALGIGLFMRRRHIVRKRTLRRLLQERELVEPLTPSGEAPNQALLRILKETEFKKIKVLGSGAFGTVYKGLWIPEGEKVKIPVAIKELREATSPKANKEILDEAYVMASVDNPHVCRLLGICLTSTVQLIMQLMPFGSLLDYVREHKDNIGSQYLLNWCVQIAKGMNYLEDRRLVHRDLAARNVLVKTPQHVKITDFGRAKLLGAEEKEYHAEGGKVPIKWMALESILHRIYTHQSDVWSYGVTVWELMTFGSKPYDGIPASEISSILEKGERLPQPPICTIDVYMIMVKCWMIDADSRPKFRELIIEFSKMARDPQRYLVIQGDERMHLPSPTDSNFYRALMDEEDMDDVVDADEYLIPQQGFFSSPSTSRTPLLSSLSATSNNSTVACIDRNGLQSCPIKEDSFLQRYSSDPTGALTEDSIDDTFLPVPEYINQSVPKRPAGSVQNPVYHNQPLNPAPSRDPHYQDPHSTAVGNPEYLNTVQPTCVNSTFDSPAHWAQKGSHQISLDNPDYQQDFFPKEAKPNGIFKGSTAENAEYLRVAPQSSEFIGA
T2 sequence (P00533 25-1210 T790M/L858R): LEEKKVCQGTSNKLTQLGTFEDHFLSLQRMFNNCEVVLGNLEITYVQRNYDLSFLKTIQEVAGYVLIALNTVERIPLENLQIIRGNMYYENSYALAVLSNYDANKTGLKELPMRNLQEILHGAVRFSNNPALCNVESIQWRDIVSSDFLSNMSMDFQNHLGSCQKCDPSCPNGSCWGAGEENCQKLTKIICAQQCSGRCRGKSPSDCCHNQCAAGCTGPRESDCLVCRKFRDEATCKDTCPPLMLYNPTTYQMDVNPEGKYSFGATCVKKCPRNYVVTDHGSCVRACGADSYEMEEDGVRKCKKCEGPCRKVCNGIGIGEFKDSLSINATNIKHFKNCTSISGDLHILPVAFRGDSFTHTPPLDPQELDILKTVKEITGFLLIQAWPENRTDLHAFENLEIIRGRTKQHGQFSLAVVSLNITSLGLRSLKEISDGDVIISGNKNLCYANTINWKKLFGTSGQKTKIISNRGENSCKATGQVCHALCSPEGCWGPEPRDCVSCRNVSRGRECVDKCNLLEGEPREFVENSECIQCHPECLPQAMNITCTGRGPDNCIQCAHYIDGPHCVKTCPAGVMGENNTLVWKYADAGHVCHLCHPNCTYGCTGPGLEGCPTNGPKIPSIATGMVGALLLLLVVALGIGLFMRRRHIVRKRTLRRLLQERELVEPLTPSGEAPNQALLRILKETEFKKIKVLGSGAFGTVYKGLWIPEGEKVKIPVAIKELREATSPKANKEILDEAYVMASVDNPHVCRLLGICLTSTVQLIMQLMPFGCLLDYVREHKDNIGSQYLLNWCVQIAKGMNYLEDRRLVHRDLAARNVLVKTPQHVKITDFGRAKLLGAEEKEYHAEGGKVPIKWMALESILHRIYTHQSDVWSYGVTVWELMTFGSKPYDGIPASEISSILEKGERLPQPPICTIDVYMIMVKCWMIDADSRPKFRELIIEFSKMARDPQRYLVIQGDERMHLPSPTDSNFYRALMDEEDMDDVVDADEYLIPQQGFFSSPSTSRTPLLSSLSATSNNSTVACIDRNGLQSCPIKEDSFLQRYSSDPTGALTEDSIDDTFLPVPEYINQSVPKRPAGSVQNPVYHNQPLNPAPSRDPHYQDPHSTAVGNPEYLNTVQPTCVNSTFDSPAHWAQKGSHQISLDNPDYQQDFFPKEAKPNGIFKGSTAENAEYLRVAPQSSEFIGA

## CC(C)c1cnc(C(=O)N[C@H]2CNC[C@H]2F)c2cnc(Nc3ccnc(N4CC[C@@H](O)[C@@](C)(F)C4)n3)cc12 (racemic) [Example 85, 6-((2-((3S,4R)-3-fluoro-4-hydroxy-3-methylpiperidin-1-yl)pyrimidin-4-yl)amino)-N-((3S,4R)-4-fluoropyrrolidin-3-yl)-4-isopropyl-2,7-naphthyridine-1-carboxamide trifluoroacetate and 6-((2-((3S,4R)-3-fluoro-4-hydroxy-3-methylpiperidin-1-yl)pyrimidin-4-yl)amino)-N-((3R,4S)-4-fluoropyrrolidin-3-yl)-4-isopropyl-2,7-naphthyridine-1-carboxamide trifluoroacetate]
EGFR (L858R T790M C797S); [2]
  IC50: < 15 nM
[1]
  IC50: 10 to 20 nM

## CC(C)c1cnc(C(=O)N[C@@H]2CNC[C@H]2F)c2cnc(Nc3ccnc(N4CC[C@@H](O)[C@@](C)(F)C4)n3)cc12 (racemic) [Example 86, 6-((2-((3S,4R)-3-fluoro-4-hydroxy-3-methylpiperidin-1-yl)pyrimidin-4-yl)amino)-N-((3R,4R)-4-fluoropyrrolidin-3-yl)-4-isopropyl-2,7-naphthyridine-1-carboxamide trifluoroacetate and 6-((2-((3S,4R)-3-fluoro-4-hydroxy-3-methylpiperidin-1-yl)pyrimidin-4-yl)amino)-N-((3S,4S)-4-fluoropyrrolidin-3-yl)-4-isopropyl-2,7-naphthyridine-1-carboxamide trifluoroacetate]
EGFR (L858R T790M C797S); [2]
  IC50: 20 to 30 nM
[1]
  IC50: > 50 nM

## CO[C@@H]1CCN(c2nccc(Nc3cc4c(C(C)C)ccc(NCC5CNC[C@@H]5S(C)(=O)=O)c4cn3)n2)C[C@@H]1F (single isomer, unassigned) [Example 1, N3-(2-((3S,4R)-3-fluoro-4-methoxypiperidin-1-yl)pyrimidin-4-yl)-5-isopropyl-N8-(((4R)-4-(methylsulfonyl)pyrrolidin-3-yl)methyl)isoquinoline-3,8-diamine or N3-(2-((3S,4R)-3-fluoro-4-methoxypiperidin-1-yl)pyrimidin-4-yl)-5-isopropyl-N8-(((4S)-4-(methylsulfonyl)pyrrolidin-3-yl)methyl)isoquinoline-3,8-diamine]
EGFR (L858R T790M C797S); [2]
  IC50: < 15 nM
[1]
  IC50: 30 to 50 nM

## CC(C)c1cnc(NC[C@H](C)N(C)C)c2cnc(Nc3ccnc(N4CC[C@@H](O)[C@@](C)(F)C4)n3)cc12 (single isomer, unassigned) [Example 4, (3S,4R)-1-(4-((8-(((S)-2-(dimethylamino)propyl)amino)-5-isopropyl-2,7-naphthyridin-3-yl)amino)pyrimidin-2-yl)-3-fluoro-3-methylpiperidin-4-ol or (3S,4R)-1-(4-((8-(((R)-2-(dimethylamino)propyl)amino)-5-isopropyl-2,7-naphthyridin-3-yl)amino)pyrimidin-2-yl)-3-fluoro-3-methylpiperidin-4-ol]
EGFR (L858R T790M C797S); [2]
  IC50: 30 to 100 nM
[1]
  IC50: > 50 nM

## CC(C)c1ccc(OC[C@H]2CCC(=O)N2C)c2cnc(Nc3ccnc(N4CCC(C)(O)CC4)n3)cc12 (single isomer, unassigned) [Example 19, (R)-5-(((3-((2-(4-hydroxy-4-methylpiperidin-1-yl)pyrimidin-4-yl)amino)-5-isopropylisoquinolin-8-yl)oxy)methyl)-1-methylpyrrolidin-2-one or (S)-5-(((3-((2-(4-hydroxy-4-methylpiperidin-1-yl)pyrimidin-4-yl)amino)-5-isopropylisoquinolin-8-yl)oxy)methyl)-1-methylpyrrolidin-2-one]
EGFR (L858R T790M C797S); [2]
  IC50: < 15 nM
[1]
  IC50: 10 to 20 nM

## CC(C)c1ccc(OC[C@@H]2CC(=O)N(C)C2)c2cnc(Nc3ccnc(N4CC[C@@H](O)[C@@](C)(F)C4)n3)cc12 (single isomer, unassigned) [Example 20]
EGFR (L858R T790M C797S); [2]
  IC50: < 15 nM
[1]
  IC50: 10 to 20 nM

## CC(C)c1ccc(OC[C@@H]2CC(=O)N(C)C2)c2cnc(Nc3ccnc(N4CC[C@@H](O)[C@@](C)(F)C4)n3)cc12 (single isomer, unassigned) [Example 21]
EGFR (L858R T790M C797S); [3]
  IC50: < 15 nM
[1]
  IC50: < 10 nM

## CC(C)c1ccc(OC[C@H]2COC(=O)N2C)c2cnc(Nc3ccnc(N4CC[C@@](C)(O)[C@@H](F)C4)n3)cc12 (single isomer, unassigned) [Example 22]
EGFR (L858R T790M C797S); [2]
  IC50: 15 to 20 nM
[1]
  IC50: > 50 nM

## CC(C)c1ccc(OC[C@H]2COC(=O)N2C)c2cnc(Nc3ccnc(N4CC[C@@](C)(O)[C@@H](F)C4)n3)cc12 (single isomer, unassigned) [Example 23]
EGFR (L858R T790M C797S); [3]
  IC50: 15 to 20 nM
[1]
  IC50: 30 to 50 nM

## CC(=O)N1CC([C@@H](C)Oc2ccc(C(C)C)c3cc(Nc4ccnc(N5CC[C@@H](O)[C@@](C)(F)C5)n4)ncc23)C1 (single isomer, unassigned) [Example 24, 1-(3-((R)-1-((3-((2-((3S,4R)-3-fluoro-4-hydroxy-3-methylpiperidin-1-yl)pyrimidin-4-yl)amino)-5-isopropylisoquinolin-8-yl)oxy)ethyl)azetidin-1-yl)ethan-1-one or 1-(3-((S)-1-((3-((2-((3S,4R)-3-fluoro-4-hydroxy-3-methylpiperidin-1-yl)pyrimidin-4-yl)amino)-5-isopropylisoquinolin-8-yl)oxy)ethyl)azetidin-1-yl)ethan-1-one]
EGFR (L858R T790M C797S); [2]
  IC50: < 15 nM
[1]
  IC50: < 10 nM

## CC(=O)N1CC(COc2cccc3cc(Nc4ccnc(N5C[C@@H](F)[C@@H](O)C(C)(C)C5)n4)ncc23)C1 (single isomer, unassigned) [Example 42, 1-(3-(((3-((2-((4S,5R)-5-fluoro-4-hydroxy-3,3-dimethylpiperidin-1-yl)pyrimidin-4-yl)amino)isoquinolin-8-yl)oxy)methyl)azetidin-1-yl)ethenone or 1-(3-(((3-((2-((4R,5S)-5-fluoro-4-hydroxy-3,3-dimethylpiperidin-1-yl)pyrimidin-4-yl)amino)isoquinolin-8-yl)oxy)methyl)azetidin-1-yl)ethenone]
EGFR (L858R T790M C797S); [2]
  IC50: 20 to 30 nM
[1]
  IC50: > 50 nM

## CC(C)c1ccc(OCCn2cnnc2)c2cnc(Nc3ccnc(N4CC[C@H]5COC[C@H]54)n3)cc12 (single isomer, unassigned) [Example 50]
EGFR (L858R T790M C797S); [2]
  IC50: 20 to 30 nM
[1]
  IC50: > 50 nM

## CC(C)c1ccc(OCCn2cnnc2)c2cnc(Nc3ccnc(N4CC[C@H]5COC[C@H]54)n3)cc12 (single isomer, unassigned) [Example 51]
EGFR (L858R T790M C797S); [3]
  IC50: 20 to 30 nM
[1]
  IC50: > 50 nM

## CO[C@@H]1CCN(c2nccc(Nc3cc4c(C(C)C)ccc(OCC5CN(C(C)=O)C5)c4cn3)n2)C[C@@H]1O (single isomer, unassigned) [Example 56, 1-(3-(((3-((2-((3S,4R)-3-hydroxy-4-methoxypiperidin-1-yl)pyrimidin-4-yl)amino)-5-isopropylisoquinolin-8-yl)oxy)methyl)azetidin-1-yl)ethan-1-one or 1-(3-(((3-((2-((3R,4S)-3-hydroxy-4-methoxypiperidin-1-yl)pyrimidin-4-yl)amino)-5-isopropylisoquinolin-8-yl)oxy)methyl)azetidin-1-yl)ethan-1-one]
EGFR (L858R T790M C797S); [2]
  IC50: < 15 nM
[1]
  IC50: 30 to 50 nM

## CO[C@H]1CCN(c2nccc(Nc3cc4c(C(C)C)ccc(OCC5CN(C(C)=O)C5)c4cn3)n2)C[C@@H]1O (single isomer, unassigned) [Example 57, 1-(3-(((3-((2-((3S,4S)-3-hydroxy-4-methoxypiperidin-1-yl)pyrimidin-4-yl)amino)-5-isopropylisoquinolin-8-yl)oxy)methyl)azetidin-1-yl)ethan-1-one or 1-(3-(((3-((2-((3R,4R)-3-hydroxy-4-methoxypiperidin-1-yl)pyrimidin-4-yl)amino)-5-isopropylisoquinolin-8-yl)oxy)methyl)azetidin-1-yl)ethan-1-one]
EGFR (L858R T790M C797S); [2]
  IC50: 15 to 20 nM
[1]
  IC50: > 50 nM

## CO[C@H]1CCN(c2nccc(Nc3cc4c(C(C)C)ccc(OCCCNC(C)=O)c4cn3)n2)C[C@@H]1O (single isomer, unassigned) [Example 58, N-(3-((3-((2-((3S,4S)-3-hydroxy-4-methoxypiperidin-1-yl)pyrimidin-4-yl)amino)-5-isopropylisoquinolin-8-yl)oxy)propyl)acetamide or N-(3-((3-((2-((3R,4R)-3-hydroxy-4-methoxypiperidin-1-yl)pyrimidin-4-yl)amino)-5-isopropylisoquinolin-8-yl)oxy)propyl)acetamide]
EGFR (L858R T790M C797S); [2]
  IC50: < 15 nM
[1]
  IC50: 20 to 30 nM

## CC(C)c1cnc(C(N)=O)c2cnc(Nc3ccnc(N4CC[C@@H](O)[C@@](C)(F)C4)n3)cc12 (single isomer, unassigned) [Example 61, 6-((2-((3S,4R)-3-fluoro-4-hydroxy-3-methylpiperidin-1-yl)pyrimidin-4-yl)amino)-4-isopropyl-2,7-naphthyridine-1-carboxamide or 6-((2-((3R,4S)-3-fluoro-4-hydroxy-3-methylpiperidin-1-yl)pyrimidin-4-yl)amino)-4-isopropyl-2,7-naphthyridine-1-carboxamide]
EGFR (L858R T790M C797S); [2]
  IC50: 20 to 30 nM
[1]
  IC50: > 50 nM
